The test system of experiment [1] is axenic amastigotes of L. amazonensis (strain MHOM/BR/76/LTB-012). The experiment can be described thus: microbe, parasite or virus in culture. Particulars: Leishmania amazonensis, read-out: L. amazonensis IC50.
The subject of experiment [2] is MCF-7 cells. The experiment in a line: Cell growth inhibition bioassay (sulforhodamine B). The settings on record: Homo sapiens, MCF7; 48 h, SRB; read-out: GI50 in indicated cell line: MCF-7. The experiment is classed as cell-based, human. In short, it runs like this: (§1)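 Growth inhibition was measured colorimetrically with sulforhodamine B staining and expressed as percent inhibition relative to solvent-treated controls. Cell lines were human: MCF-7 breast adenocarcinoma, DU145 and PC3 prostate carcinoma/adenocarcinoma, H460 large cell lung cancer.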

In experiment [3] the test system is H460 cells. The experiment in a line: Cell growth inhibition bioassay (sulforhodamine B). Particulars: Homo sapiens, NCI-H460; 48 h, SRB; read-out: GI50 in indicated cell line: H460. The experiment is classed as cell-based, human. In short, it runs like this: as §1
In experiment [4] the test system is DU145 cells. The experiment can be described thus: Cell growth inhibition bioassay (sulforhodamine B). Particulars: Homo sapiens, DU-145; 48 h, SRB; read-out: GI50 in indicated cell line: DU145. The experiment is classed as cell-based, human. In short, it runs like this: as §1
Experiment [5] has as its system M-14 cells. The experiment can be described thus: Cell growth inhibition bioassay (sulforhodamine B). The experiment is classed as cell-based, human. The settings on record: Homo sapiens, M14; 48 h, SRB; read-out: GI50 in indicated cell line: M-14. In short, it runs like this: (§2)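 Cells were exposed to compound alongside matched solvent controls, then stained with sulforhodamine B. Percent growth inhibition was calculated from dye absorbance against the control.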

In experiment [6] the test system is HT-29 cells. The experiment in a line: Cell growth inhibition bioassay (sulforhodamine B). It is filed as cell-based, human. Particulars: Homo sapiens, HT-29; 48 h, SRB; read-out: GI50 in indicated cell line: HT-29. The method, boiled down:
as §2

For experiment [7], the system named is K562 cells. The experiment can be described thus: Cell growth inhibition bioassay (sulforhodamine B). The experiment is classed as cell-based, human. The settings on record: Homo sapiens, K562; 48 h, SRB; read-out: GI50 in indicated cell line: K562. In short, it runs like this: as §2

Usually IC50 stands for the concentration that inhibits the measured activity by half. A word on the GI50: it is the concentration giving 50% growth inhibition.

≈ marks a conversion by molar mass, not a printed value.

With `C(=N/Nc1ncnc2sc3c(c12)CCCC3)/c1ccccn1` [II-21], the IC50 in experiment [1] was 200 nM. Besides, the 50% growth inhibitory concentration (GI50) in experiment [2] was 0.026 µg/mL (≈ 0.084 µM); in experiment [3], 0.123 µg/mL (≈ 0.398 µM); in experiment [4], 0.115 µg/mL (≈ 0.372 µM); in experiment [5] it was 0.078 µg/mL (≈ 0.252 µM); in experiment [6], 0.03 µg/mL (≈ 0.097 µM); in experiment [7], 0.051 µg/mL (≈ 0.165 µM).

The values above are taken from patent US9061984B2 (University of Louisville Research Foundation, Inc., priority 2008, dated 2015).
